Measurements as given in patent US5451508A, “Method and monoclonal antibodies for vitamin B12 determination” (Boehringer Mannheim GmbH, priority 1989, dated 1995).

Tested on: monoclonal antibody MAB 1 and MAB 2
Test: ELISA determination of the cross-reaction of vitamin B12 derivatives with the monoclonal antibodies
Assay type: binding, mice
Conditions: for cross-reactivity: monoclonal antibodies according to the invention (e.g. from cell lines ECACC 88101301 and ECACC 88101302), stated in description; for cross-reaction: values identical for MAB 1 and MAB 2, antigen added at 50, 500, 5000 μg/ml, calculated from concentrations giving 50% of max. signal
Procedure: The plates are re-treated for 10 minutes with 0.9% sodium chloride solution and 1% albumin solution. Subsequently they are washed with 0.9% sodium chloride solution.
Afterwards they are incubated at 37° C. for one hour with 100 μl sample and washed again with 0.9% sodium chloride solution. In order to test the cross-reaction 50, 500 and 5000 μg/ml of the vitamin B12 derivative to be tested is added to the sample solution. A reduction of the measured signal in the presence of the derivative indicates a cross-reaction. A further incubation follows (1 hour, 37° C.) with 450 U/ml of a sheep-Fab-anti-mouse Fcγ peroxidase conjugate. After washing once again with 0.9% sodium chloride the peroxidase activity is determined in the usual way (for example with 2,2'azino-di-[3-ethylbenzthiazoline sulphonate (6)] (ABTS®), 30 minutes at room temperature, the difference in absorbance ΔmA is read at 422 nm).
The antigen to be tested for cross-reaction is added in increasing concentrations (50 μg/ml, 500 μg/ml, 5000 μg/ml) to the monoclonal antibody. Afterwards the cross-reaction is calculated from the following formula: [formula]

Compound | cross-reactivity | cross-reaction
2-hydroxy-5,6-dimethylbenzimidazolyl-cobamide | 1.5% | 1.5
C/C1=C2/[N-][C@H]([C@H](CC(N)=O)[C@@]2(C)CCC(=O)NC[C@@H](C)OP(=O)([O-])O[C@H]2[C@@H](O)[C@@H](n3cnc4cc(C)c(C)cc43)O[C@@H]2CO)[C@]2(C)N=C(/C(C)=C3N=C(/C=C4N=C1[C@@H](CCC(N)=O)C\4(C)C)[C@@H](CCC(N)=O)[C@]\3(C)CC(N)=O)[C@@H](CCC(N)=O)[C@]2(C)CC(N)=O.[CH3-].[Co+3] [Methylcobalamin] | 100% | 100
(carboxy(2-cyanamino-4,5-dimethylphenyl)-amino)-cobamide | 0.07% | 0.07
Cobyrinic acid-diamide | < 0.05% | < 0.05
Purinylcobinamide | 1.1% | 1.1
